Measured values reported in PubChem BioAssay (NCI).
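Briefly, cells in 96-well plates were exposed to five compound concentrations for 48 h, and endpoints were estimated by linear interpolation. The concentration for 50% growth inhibition is given as GI50. TGI denotes the concentration required for complete inhibition of growth.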

Legend:
Test in all cases: NCI anticancer screen, dose series, 48 h
[1] = tested on: UACC-257 melanoma
[2] = tested on: SW-620 colon
[3] = tested on: DU-145 prostate
[4] = tested on: UACC-62 melanoma
[5] = tested on: SF-295 CNS
[6] = tested on: UO-31 renal
[7] = tested on: NCI-H460 lung
[8] = tested on: SK-MEL-28 melanoma
[9] = tested on: IGROV1 ovarian
[10] = tested on: PC-3 prostate

Row | SMILES | GI50 [1] [µM] | TGI [1] [µM] | GI50 [2] [µM] | TGI [2] [µM] | GI50 [3] [µM] | TGI [3] [µM] | GI50 [4] [µM] | TGI [4] [µM] | GI50 [5] [µM] | TGI [5] [µM] | GI50 [6] [µM] | TGI [6] [µM] | GI50 [7] [µM] | TGI [7] [µM] | GI50 [8] [µM] | TGI [8] [µM] | GI50 [9] [µM] | TGI [9] [µM] | GI50 [10] [µM] | TGI [10] [µM]
1 | Cc1ccn2c(-c3csc(Nc4cccc(O)c4)n3)c(C)nc2c1 | 3.48 | 19.6 | 0.337 | 26.8 | 0.787 | 25.3 | 0.712 | 19.2 | 2.34 | 11.9 | 0.977 | 16.6 | 0.423 | 16.9 | 1.51 | 36.3 | 4.43 | 29.1 | 0.609 | 29.6
2 | COc1ccc(-c2nnc(Nc3nc(O)c(C4=c5cc(OC(F)(F)F)ccc5=NC4=O)s3)o2)cc1 | 13.2 | 35.9 | 38.2 | > 100 | 23.4 | 87.1 | 15.1 | 29.5 | 6.12 | > 100 | 21.9 | 54.3 | 22 | > 100 | 17.8 | > 100 | 22 | 60.7 | 19.9 | 57.5
3 | COc1ccc(Oc2nc(Nc3ccc(N4CCOCC4)cc3)ncc2NC(=O)Nc2cc(OC)cc(OC)c2)cc1 | 5.47 | 23.8 | 3.17 | > 33.3 | 1.66 | 7.59 | 1.99 | 7.41 | 4.19 | 12.7 | 5.33 | 24.8 | 1.31 | 5.72 | 2.5 | 9.73 | 4.45 | 13.9 | 2.39 | 14.2
4 | Cc1ccc(-c2c3c(N)nc(-c4ccncc4)nc3nc3c2c(C)nn3-c2ccccc2)cc1 | 13.3 | > 37.5 | 9.99 | > 37.5 | 5.08 | 20.7 | 13.8 | > 37.5 | > 37.5 | > 37.5 | > 37.5 | > 37.5 | 6.5 | 33.6 | 7.69 | > 37.5 | 22.5 | > 37.5 | 32.3 | > 37.5
5 | CCOC(=O)C1=C(C)NC(C)=C(C(=O)OCC)C1c1cc(Br)c(O)c(OC)c1 | 12.6 | 31.4 | 4.12 | 16.3 | 3.88 | 13.1 | 4.71 | 17 | 2.89 | 10.5 | 4.55 | 25.2 | 3.98 | 14.4 | 4.32 | 16.7 | 7.39 | 37.2 | 3.62 | 27.2
6 | O=Cc1c[nH]c2ccc(-c3csc4ccccc34)cc12 | 13.2 | > 100 | 4.31 | > 100 | 3.18 | 22.2 | 3.02 | 34.6 | 2.64 | 13.1 | 8.04 | > 100 | 3.46 | > 100 | 5.49 | > 100 | 3.81 | 59.9 | 3.02 | > 100
7 | S=C(Nc1ccc(Cl)cc1)SC1CCCCC1 | – | 76.5 | – | > 100 | – | > 100 | – | 28.8 | – | 70.5 | – | > 100 | – | 86.7 | – | 49.6 | – | 54.2 | – | > 100
8 | NC(Cc1ccc(O)cc1)C(=O)N/N=C/c1ccc(N(CCCl)CCCl)cc1 (stereo not given) | 15.6 | 98.5 | 16 | > 100 | 5.19 | 34.7 | 2.69 | 27 | 1.37 | 6.35 | 3.95 | 23.6 | 0.647 | 26.7 | 58.7 | > 100 | 11.5 | > 100 | 11.7 | > 100
9 | O=C(O)c1ccccc1-c1ccccc1C(=O)Nc1ccc2c(c1)Cc1ccccc1-2 | – | 78.3 | – | > 100 | – | > 100 | – | 32 | – | > 100 | – | > 100 | – | 38.1 | – | > 100 | – | > 100 | – | > 100
10 | Cc1cc(N2CCN(C)CC2)nc(N(CCNc2ccnc3cc(Cl)ccc23)Cc2ccco2)n1 | 2.07 | 4.25 | 3.04 | 12.4 | 5.94 | 19 | 2.02 | 4.01 | 1.8 | 3.79 | 2.66 | 11.9 | 3.52 | 11.8 | 1.71 | 3.31 | 2.91 | 12.2 | 3.7 | 13.8
11 | COC(=O)c1c2c(c(C)[n+]([O-])c1C)C(=O)C=C(NCc1ccc(Br)cc1)C2=O | 0.229 | 0.907 | 0.17 | 1.71 | 0.871 | 2.26 | 0.0438 | 1.09 | 0.242 | 1.32 | 1.08 | 2.44 | 0.431 | 1.99 | 0.987 | 2.72 | 0.473 | 2.14 | 0.428 | 3.37
